From PubChem BioAssay AID2060897 (Molecular Pharmacology Branch, DTP, NCI, 2025)
Values belong to the compound of their own block, whether it stands above or below them.

Test system: 966289-007-R4-J1-PDC complex spheroid viability
Assay: Anticancer human tumor 966289-007-R4-J1-PDC patient-derived pancreatic adenocarcinoma cell line growth inhibition [RAS]
Conditions: for viability, T/C: stronger effect = lower value
Outline: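 Multi-cell-type spheroids: tumor cells plus HUVEC endothelial cells and mesenchymal stem cells. RAS-pathway inhibitors were combined with targeted agents, each dosed in half-log steps down from clinical Cmax, or from 10 microM when Cmax was unknown.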

[1] = curve of first compound, second compound 0.0316 µM
[2] = curve of first compound, second compound 0.1 µM
[3] = curve of first compound, second compound 0.316 µM
[4] = curve of first compound, second compound 1 µM
[5] = second compound 0.0316 µM, first compound 0.0316 µM
[6] = second compound 0.0316 µM, first compound 0.1 µM
[7] = second compound 0.0316 µM, first compound 0.316 µM
[8] = second compound 0.0316 µM, first compound 1 µM
[9] = second compound 0.0316 µM, first compound 3.16 µM
[10] = second compound 0.0316 µM, first compound 10 µM
[11] = second compound 0.1 µM, first compound 0.0316 µM
[12] = second compound 0.1 µM, first compound 0.1 µM
[13] = second compound 0.1 µM, first compound 0.316 µM
[14] = second compound 0.1 µM, first compound 1 µM
[15] = second compound 0.1 µM, first compound 3.16 µM
[16] = second compound 0.1 µM, first compound 10 µM
[17] = second compound 0.316 µM, first compound 0.0316 µM
[18] = second compound 0.316 µM, first compound 0.1 µM
[19] = second compound 0.316 µM, first compound 0.316 µM
[20] = second compound 0.316 µM, first compound 1 µM
[21] = second compound 0.316 µM, first compound 3.16 µM
[22] = second compound 0.316 µM, first compound 10 µM
[23] = second compound 1 µM, first compound 0.0316 µM
[24] = second compound 1 µM, first compound 0.1 µM
[25] = second compound 1 µM, first compound 0.316 µM
[26] = second compound 1 µM, first compound 1 µM
[27] = second compound 1 µM, first compound 3.16 µM
[28] = second compound 1 µM, first compound 10 µM
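Also: spheroids exposed to agents for one week before readout.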
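For viability, T/C in this document: percent viability relative to DMSO vehicle control wells as 100%.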

IC50 (curve of compound): > 10 µM
SMILES: C[C@@H](NC(=O)c1ncnc(N)c1Cl)c1ncc(C(=O)Nc2cc(C(F)(F)F)c(Cl)cn2)s1
viability, T/C (compound 0.0316 µM): 106% [middle of 4 runs]
viability, T/C (compound 10 µM): 99.5% [middle of 4 runs]

IC50 [1]: > 10 µM
IC50 [2]: > 10 µM
IC50 [3]: > 10 µM
IC50 [4]: > 10 µM
IC50 (curve of first compound, second compound 3.16 µM): > 10 µM
IC50 (curve of first compound, second compound 10 µM): > 10 µM
SMILES: C[C@@H](NC(=O)c1ncnc(N)c1Cl)c1ncc(C(=O)Nc2cc(C(F)(F)F)c(Cl)cn2)s1 + C#Cc1c(F)ccc2cc(O)cc(-c3ncc4c(N5CC6CCC(C5)N6)nc(OCC56CCCN5CC(F)C6)nc4c3F)c12
viability, T/C [5]: 109%
viability, T/C [6]: 118%
viability, T/C [7]: 130%
viability, T/C [8]: 119%
viability, T/C [9]: 117%
viability, T/C [10]: 86.8%
viability, T/C [11]: 111%
viability, T/C [12]: 114%
viability, T/C [13]: 103%
viability, T/C [14]: 106%
viability, T/C [15]: 109%
viability, T/C [16]: 95.7%
viability, T/C [17]: 105%
viability, T/C [18]: 126%
viability, T/C [19]: 124%
viability, T/C [20]: 111%
viability, T/C [21]: 112%
viability, T/C [22]: 75.7%
viability, T/C [23]: 105%
viability, T/C [24]: 123%
viability, T/C [25]: 134%
viability, T/C [26]: 130%
viability, T/C [27]: 130%
viability, T/C [28]: 87.6%
viability, T/C (second compound 3.16 µM, first compound 0.0316 µM): 119%
viability, T/C (second compound 3.16 µM, first compound 0.1 µM): 110%
viability, T/C (second compound 3.16 µM, first compound 0.316 µM): 118%
viability, T/C (second compound 3.16 µM, first compound 1 µM): 122%
viability, T/C (second compound 3.16 µM, first compound 3.16 µM): 123%
viability, T/C (second compound 3.16 µM, first compound 10 µM): 86%
viability, T/C (second compound 10 µM, first compound 0.0316 µM): 107%
viability, T/C (second compound 10 µM, first compound 0.1 µM): 108%
viability, T/C (second compound 10 µM, first compound 0.316 µM): 134%
viability, T/C (second compound 10 µM, first compound 1 µM): 125%
viability, T/C (second compound 10 µM, first compound 3.16 µM): 124%
viability, T/C (second compound 10 µM, first compound 10 µM): 91.3%

IC50 (curve of first compound, second compound 0.00316 µM): > 10 µM
IC50 (curve of first compound, second compound 0.01 µM): > 10 µM
IC50 [1]: > 10 µM
IC50 [2]: > 10 µM
IC50 [3]: > 10 µM
IC50 [4]: > 10 µM
SMILES: NC1c2ccccc2OC12CCN(c1cnc3c(N4CCCc5ncccc54)n[nH]c3n1)CC2 (centres undefined) + C=CC(=O)N1CCN(c2nc(OCC3CCCN3C)nc3c(F)c(-c4nc(N)cc(C)c4C(F)(F)F)c(Cl)cc23)C(C)C1
viability, T/C (second compound 0.00316 µM, first compound 0.0316 µM): 117%
viability, T/C (second compound 0.00316 µM, first compound 0.1 µM): 90.1%
viability, T/C (second compound 0.00316 µM, first compound 0.316 µM): 126%
viability, T/C (second compound 0.00316 µM, first compound 1 µM): 102%
viability, T/C (second compound 0.00316 µM, first compound 3.16 µM): 113%
viability, T/C (second compound 0.00316 µM, first compound 10 µM): 103%
viability, T/C (second compound 0.01 µM, first compound 0.0316 µM): 113%
viability, T/C (second compound 0.01 µM, first compound 0.1 µM): 104%
viability, T/C (second compound 0.01 µM, first compound 0.316 µM): 104%
viability, T/C (second compound 0.01 µM, first compound 1 µM): 122%
viability, T/C (second compound 0.01 µM, first compound 3.16 µM): 107%
viability, T/C (second compound 0.01 µM, first compound 10 µM): 118%
viability, T/C [5]: 113%
viability, T/C [6]: 103%
viability, T/C [7]: 133%
viability, T/C [8]: 113%
viability, T/C [9]: 126%
viability, T/C [10]: 119%
viability, T/C [11]: 101%
viability, T/C [12]: 103%
viability, T/C [13]: 94.2%
viability, T/C [14]: 105%
viability, T/C [15]: 119%
viability, T/C [16]: 107%
viability, T/C [17]: 109%
viability, T/C [18]: 91.4%
viability, T/C [19]: 107%
viability, T/C [20]: 120%
viability, T/C [21]: 102%
viability, T/C [22]: 106%
viability, T/C [23]: 105%
viability, T/C [24]: 114%
viability, T/C [25]: 123%
viability, T/C [26]: 113%
viability, T/C [27]: 116%
viability, T/C [28]: 124%

IC50 (curve of first compound, second compound 0.000949 µM): > 1 µM
IC50 (curve of first compound, second compound 0.003 µM): > 1 µM
IC50 (curve of first compound, second compound 0.00949 µM): > 1 µM
IC50 (curve of first compound, second compound 0.03 µM): > 1 µM
IC50 (curve of first compound, second compound 0.0949 µM): > 1 µM
IC50 (curve of first compound, second compound 0.3 µM): > 1 µM
SMILES: CCN1CCN(Cc2ccc(Nc3ncc(F)c(-c4cc(F)c5nc(C)n(C(C)C)c5c4)n3)nc2)CC1 + CCn1c(-c2cccnc2C(C)OC)c2c3cc(ccc31)N1CCOC(CC(NC(=O)C(C(C)C)N(C)C(=O)C3(F)CCN(C(=O)C#CC(C)(C)N(C)C)CC3)C(=O)N3CCCC(N3)C(=O)OCC(C)(C)C2)C1
viability, T/C (second compound 0.000949 µM, first compound 0.00316 µM): 107%
viability, T/C (second compound 0.000949 µM, first compound 0.01 µM): 84.9%
viability, T/C (second compound 0.000949 µM, first compound 0.0316 µM): 104%
viability, T/C (second compound 0.000949 µM, first compound 0.1 µM): 81.3%
viability, T/C (second compound 0.000949 µM, first compound 0.316 µM): 85.6%
viability, T/C (second compound 0.000949 µM, first compound 1 µM): 79.3%
viability, T/C (second compound 0.003 µM, first compound 0.00316 µM): 106%
viability, T/C (second compound 0.003 µM, first compound 0.01 µM): 78.2%
viability, T/C (second compound 0.003 µM, first compound 0.0316 µM): 93.7%
viability, T/C (second compound 0.003 µM, first compound 0.1 µM): 79.8%
viability, T/C (second compound 0.003 µM, first compound 0.316 µM): 93.4%
viability, T/C (second compound 0.003 µM, first compound 1 µM): 84.1%
viability, T/C (second compound 0.00949 µM, first compound 0.00316 µM): 69.9%
viability, T/C (second compound 0.00949 µM, first compound 0.01 µM): 90.2%
viability, T/C (second compound 0.00949 µM, first compound 0.0316 µM): 104%
viability, T/C (second compound 0.00949 µM, first compound 0.1 µM): 90.4%
viability, T/C (second compound 0.00949 µM, first compound 0.316 µM): 90%
viability, T/C (second compound 0.00949 µM, first compound 1 µM): 78.5%
viability, T/C (second compound 0.03 µM, first compound 0.00316 µM): 77.8%
viability, T/C (second compound 0.03 µM, first compound 0.01 µM): 83.3%
viability, T/C (second compound 0.03 µM, first compound 0.0316 µM): 99.5%
viability, T/C (second compound 0.03 µM, first compound 0.1 µM): 81.4%
viability, T/C (second compound 0.03 µM, first compound 0.316 µM): 90.9%
viability, T/C (second compound 0.03 µM, first compound 1 µM): 78.9%
viability, T/C (second compound 0.0949 µM, first compound 0.00316 µM): 78.4%
viability, T/C (second compound 0.0949 µM, first compound 0.01 µM): 99.6%
viability, T/C (second compound 0.0949 µM, first compound 0.0316 µM): 112%
viability, T/C (second compound 0.0949 µM, first compound 0.1 µM): 99.8%
viability, T/C (second compound 0.0949 µM, first compound 0.316 µM): 94.4%
viability, T/C (second compound 0.0949 µM, first compound 1 µM): 79.9%
viability, T/C (second compound 0.3 µM, first compound 0.00316 µM): 83.3%
viability, T/C (second compound 0.3 µM, first compound 0.01 µM): 88.6%
viability, T/C (second compound 0.3 µM, first compound 0.0316 µM): 101%
viability, T/C (second compound 0.3 µM, first compound 0.1 µM): 87.7%
viability, T/C (second compound 0.3 µM, first compound 0.316 µM): 91%
viability, T/C (second compound 0.3 µM, first compound 1 µM): 81.3%
